Our source for the IC50 values is US20220194939A1, “Novel compounds and methods of use treating fructose-related disorders or diseases” (Colorado Research Partners, LLC, priority 2019, published 2022).

SMILES strings stand for the structures. Where a name gives a salt, the structure may show the parent alone.

In this assay the target is T1, KHK (Homo sapiens, UniProt P50053).
T1 construct: (His)6 tag (N); thrombin cleavage site (N); made in house; host or cells: E. coli BL-21 (DE3)
T1 sequence (P50053 1-298): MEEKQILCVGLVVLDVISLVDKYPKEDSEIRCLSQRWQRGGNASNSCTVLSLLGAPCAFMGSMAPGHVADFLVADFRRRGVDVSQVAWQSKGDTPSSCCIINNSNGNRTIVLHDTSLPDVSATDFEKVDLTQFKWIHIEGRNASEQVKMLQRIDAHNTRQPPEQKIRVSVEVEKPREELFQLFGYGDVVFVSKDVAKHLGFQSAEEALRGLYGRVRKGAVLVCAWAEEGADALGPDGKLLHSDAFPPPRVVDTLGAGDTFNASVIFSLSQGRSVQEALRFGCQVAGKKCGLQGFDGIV
As to the kind of experiment: coupled enzyme assay for KHK activity. To be noted: purified human recombinant KHK, PK/LDH coupled assay, A340 at 25° C., 0.1 mM ATP, 0.2 mM fructose; isoform (KHK-C or KHK-A) not given. Type of assay: biochemical. The source says: Specific coupled enzyme screening assays were developed for KHK-C and KHK-A using recombinant proteins. Purified human recombinant KHK-C and KHK-A were produced using by expression in E. coli BL-21 (DE3) using IPTG induction as a His-tagged fusion proteins and purified using Ni-NTA chromatography on His-Trap FF columns. For KHK-C, the coding region from NCBI refseq number NM_006488 was inserted at the Nde I site of pET28a(+) vector, which puts it downstream from an amino-terminal (His)6 tag and a thrombin cleavage site. The same was done for KHK-A using the coding regions from NCBI refseq number NM_000221.2. The protein was expressed in BL-21 (DE3) using IPTG induction and purified using Ni-NTA (GE His Trap FF) column. The protein was washed with 100 column volumes, eluted with 3 column volumes, and dialyzed with HEPES, pH 7.4 buffers containing 20, 500, and 0 mM imidazole, respectively. The dialysate was concentrated by ultrafiltration (10kD MWCO) to >15 mg/mL protein. The protein prep was >95% pure on SDS-PAGE and the molecular weight was confirmed by relative mobility to be 33,730 Da (34,826 expected).
The assay uses the product of the KHK reaction, ADP, to drive a signal measured in real time for measuring the reaction rate. This consists of a 3-step, coupled-enzyme process by which pyruvate kinase (PK), which converts the ADP from the KHK reaction along with phosphoenolpyruvate (PEP) to ATP and pyruvate, respectively. The pyruvate is converted along with NADH to lactate and NAD+ by lactate dehydrogenase (LDH). The disappearance of NADH is measured kinetically by monitoring A340 at 25° C. for 15 minutes. The enzymatic assay was carried out in a total reaction volume of 200 μL containing 33 mM triethanolamine-HCl, pH 7.4, 6 mM MgCl2, 100 mM KCl, 0.1 mM ATP, 1.33 mM PEP, 0.3 mM NADH, 0.2-1.0 U of PK, 0.2-1.0 U of LDH, and 150-240 nM KHK-C or KHK-A (0.01-0.02 U). Fructose was added to initiate the reactions to 0.2 mM, except for the no fructose controls which utilized water. This high-throughput assay was used to identify inhibitors that have an IC50 value<1 μM for KHK-C and to confirm that those values for KHK-A were not more than 2-fold lower.
In general, IC50 refers to the point on the concentration scale where inhibition reaches its midpoint. In the case of `CCCCCCCC(=O)OC[C@H](NC(=O)OC(C)C)C(=O)Nc1ccc2cnn(-c3cccc(C)c3)c2c1` [Compound 35, (S)-2-((isoproxycarbonyl)amino)-3-oxo-3-((1-(m-tolyl)-1H-indazol-6-yl)amino)propyl octanoate], the IC50 came to 200000 nM.

Regarding `CCOC(=O)N[C@@H](CO)C(=O)Nc1ccc2cnn(-c3cccc(C)c3)c2c1` [Compound 36, (S)-ethyl (3-hydroxy-1-oxo-1-((1-(m-tolyl)-1H indazol-6-yl)amino)propan-2-yl)carbamate], the IC50 came to 400 nM.

With `Cc1cccc(-n2ncc3ccc(NC(=O)[C@H](CO)NC(=O)OC(C)C)cc32)c1` [Compound 37, (S)-isopropyl (3-hydroxy-1-oxo-1-((1-(m-tolyl)-1H-indazol-6-yl)amino)propan-2-yl)carbamate], the IC50 is 4000 nM. Then `Cc1cccc(-n2ncc3ccc(NC(=O)C(N)C(N)=O)cc32)c1` (stereo not shown) [Compound 38, 2-amino-N1-(1-(m-tolyl)-1H-indazol-6-yl)malonamide hydrochloride], with 1400 nM; and `Cc1cccc(-n2ncc3ccc(NC(=O)C(N)C(=O)O)cc32)c1` (stereo not shown) [Compound 39, 2-amino-3-oxo-3-((1-(m-tolyl)-1H-indazol-6-yl)amino)propanoic acid hydrochloride], with 700 nM. In the case of `Cc1cccc(-n2nnc3ccc(NC(=O)[C@@H](N)CO)cc32)c1` [Compound 40, (S)-2-amino-3-hydroxy-N-(1-(m-tolyl)-1H-benzo[d][1,2,3]triazol-6-yl)propanamide hydrochloride], the 50% inhibitory concentration (IC50) stood at 140 nM. Then `CC(=O)OC[C@H](N)C(=O)Nc1ccc2cnn(-c3cccc(C)c3)c2c1` [Compound 41, (S)-2-amino-3-oxo-3-((1-(m-tolyl)-1H-indazol-6-yl)amino)propyl acetate hydrochloride], with 2700 nM; and `Cc1cccc(-n2ncc3cc(C)c(NC(=O)[C@@H](N)CO)cc32)c1` [Compound 42, (S)-2-amino-3-hydroxy-N-(5-methyl-1-(m-tolyl)-1H-indazol-6-yl)propanamide hydrochloride], with 1800 nM. Then `CCc1nn(-c2cccc(C)c2)c2cc(NC(=O)[C@@H](N)CO)ccc12` [Compound 43, (S)-2-amino-N-(3-ethyl-1-(m-tolyl)-1H-indazol-6-yl)-3-hydroxypropanamide hydrochloride], with 1860 nM. The result for `Cc1cccc(-n2ncc3cnc(NC(=O)[C@@H](N)CO)cc32)c1` [Compound 44, (S)-2-amino-3-hydroxy-N-(1-(m-tolyl)-1H-pyrazolo[4,3-c]pyridin-6-yl)propanamide hydrochloride] reads 15000 nM; that for `Cc1cccc(-n2ncc3ncc(NC(=O)[C@@H](N)CO)cc32)c1` [Compound 45, (S)-2-amino-3-hydroxy-N-(1-(m-tolyl)-1H-pyrazolo[4,3-b]pyridin-6-yl)propanamide hydrochloride], 250 nM. `CCc1nn(-c2cccc(C)c2)c2cc(NC(=O)[C@@H](N)CO)c(C)cc12` [Compound 46, (S)-2-amino-N-(3-ethyl-5-methyl-1-(m-tolyl)-1H-indazol-6-yl)-3-hydroxypropanamide hydrochloride]: the IC50 was determined as 1900 nM. On to `Cc1cccc(-n2nc(C(F)F)c3ccc(NC(=O)[C@@H](N)CO)cc32)c1` [Compound 48, (S)-2-amino-N-(3-(difluoromethyl)-1-(m-tolyl)-1H-indazol-6-yl)-3-hydroxypropanamide hydrochloride], for which the IC50 is 460 nM.
